Data reported in ChEMBL document CHEMBL3102818, “Tocopheramine succinate and tocopheryl succinate: mechanism of mitochondrial inhibition and superoxide radical production” (Bioorg Med Chem, 2014).
The source made the active and inactive calls. No cut-off for these calls is given here.

Experiments:
Bos taurus [1] = organism: Bos taurus; experiment: Induction of superoxide radical generation in bovine succinate-respiring submitochondrial particles assessed as oxidation of CPH at 36 uM after 2 mins by ESR spectroscopy; type: functional
Bos taurus [2] = organism: Bos taurus; experiment: Induction of superoxide radical generation in bovine succinate-respiring submitochondrial particles assessed as oxidation of CPH at 36 uM after 2 mins by ESR spectroscopy in presence of rotenone; type: functional
Bos taurus [3] = organism: Bos taurus; experiment: Induction of superoxide radical generation in bovine NADH-respiring submitochondrial particles assessed as oxidation of CPH at 36 uM after 2 mins by ESR spectroscopy; type: functional
[4] = Induction of superoxide radical generation in mouse N18TG2 cells assessed as CMH oxidation at 50 uM after 2 hrs by ESR spectroscopy (reference value: 0.40 +/- 0.05 pmol/min); type: functional
Bos taurus [5] = organism: Bos taurus; experiment: Inhibition of oxygen consumption in bovine succinate-respiring submitochondrial particles involving complexes 2,3,4 after 3 mins relative to control; type: functional
Liver [6] = experiment: Drug degradation in denaturated rat liver homogenates assessed as compound recovery at 500 nmol after 4 hrs by HPLC analysis; type: ADME, tissue-based; settings: tissue homogenate
Bos taurus [7] = organism: Bos taurus; experiment: Induction of superoxide radical generation in bovine NADH-respiring submitochondrial particles assessed as oxidation of CPH after 2 mins by ESR spectroscopy relative to control; type: functional
Bos taurus [8] = organism: Bos taurus; experiment: Induction of superoxide radical generation in bovine NADH-respiring submitochondrial particles assessed as oxidation of CPH at 900 uM after 2 mins by ESR spectroscopy in presence of superoxide dismutase relative to control; type: functional
[9] = Drug degradation in mouse N18TG2 cells assessed as alpha-TOH formation at 10 nmol after 24 hrs by HPLC analysis; type: ADME, cell-based; settings: n18tg2, 24 h
Liver [10] = experiment: Drug degradation in rat liver homogenates at 500 nmol after 4 hrs by HPLC analysis; type: ADME, tissue-based; settings: tissue homogenate
[11] = Inhibition of bovine mitochondrial electron transport protein complex 2 succinate:DCPIP oxidoreductase activity by spectrophotometry; set-up: species or system Bos taurus
HeLa = experiment: Cytotoxicity against human HeLa cells at 100 to 200 uM by MTT assay; type: functional, cell-based
[12] = (§1) Inhibition of bovine mitochondrial electron transport protein complex 3 dUQH2:cytochrome c oxidoreductase activity by spectrophotometry; set-up: species or system Bos taurus
Liver [13] = experiment: Drug degradation in rat liver homogenates assessed as alpha-TOH formation at 500 nmol after 4 hrs by HPLC analysis; type: ADME, tissue-based; settings: tissue homogenate
Bos taurus [14] = organism: Bos taurus; experiment: Induction of superoxide radical generation in bovine succinate-respiring submitochondrial particles assessed as oxidation of CPH at 900 uM after 2 mins by ESR spectroscopy in presence of superoxide dismutase relative to control; type: functional
Bos taurus [15] = organism: Bos taurus; experiment: Inhibition of oxygen consumption in bovine NADH-respiring submitochondrial particles involving complexes 1,3,4 after 3 mins relative to control; type: functional
N18TG2 [16] = experiment: Induction of superoxide radical generation in mouse N18TG2 cells assessed as CMH oxidation at 200 uM after 2 hrs by ESR spectroscopy relative to control; type: functional, cell-based
Bos taurus [17] = organism: Bos taurus; experiment: Inhibition of bovine mitochondrial electron transport protein complex 1 NADH:dUQ oxidoreductase activity by spectrophotometry
Bos taurus [18] = organism: Bos taurus; experiment: Induction of superoxide radical generation in bovine succinate-respiring submitochondrial particles assessed as oxidation of CPH after 2 mins by ESR spectroscopy relative to control; type: functional
N18TG2 [19] = experiment: Cytotoxicity against mouse N18TG2 cells at 6.25 to 100 uM by MTT assay; type: functional, cell-based
Bos taurus [20] = organism: Bos taurus; experiment: Induction of superoxide radical generation in bovine NADH-respiring submitochondrial particles assessed as oxidation of CPH at 900 uM after 2 mins by ESR spectroscopy; type: functional
Bos taurus [21] = organism: Bos taurus; experiment: Induction of superoxide radical generation in bovine succinate-respiring submitochondrial particles assessed as oxidation of CPH at 900 uM after 2 mins by ESR spectroscopy in presence of rotenone; type: functional
Bos taurus [22] = organism: Bos taurus; experiment: Induction of superoxide radical generation in bovine succinate-respiring submitochondrial particles assessed as oxidation of CPH at 900 uM after 2 mins by ESR spectroscopy; type: functional
Bos taurus [23] = organism: Bos taurus; experiment: Induction of superoxide radical generation in bovine succinate-respiring submitochondrial particles assessed as oxidation of CPH at 50 uM after 2 mins by ESR spectroscopy; type: functional
Bos taurus [24] = organism: Bos taurus; experiment: as §1

Row | SMILES | inhibition (Bos taurus [5]) | Stability (Liver [6]) | Activity (Bos taurus [7]) | Activity (Bos taurus [8]) | Stability [9] | Stability (Liver [10]) | IC50 [11] | Activity (HeLa) | IC50 [12] | Stability (Liver [13]) | Activity (Bos taurus [14]) | inhibition (Bos taurus [15]) | Activity (N18TG2 [16]) | inhibition (Bos taurus [17]) | Activity (Bos taurus [18]) | Activity (N18TG2 [19]) | further results
1 | CCCCCC[C@H]1C(=O)O[C@H](C)[C@H](NC(=O)c2cccc(NC=O)c2O)C(=O)O[C@@H](C)[C@@H]1OC(=O)CC(C)C [ANTIMYCIN A] | – | – | – | – | – | – | – | – | – | – | – | – | – | – | – | – | Activity (Bos taurus [1]): Active; Activity (Bos taurus [2]): Active; Activity (Bos taurus [3]): Active; Activity [4]: 1.2 pmol/min
2 | Cc1c(C)c2c(c(C)c1NC(=O)CCC(=O)O)CC[C@@](C)(CCC[C@H](C)CCC[C@H](C)CCCC(C)C)O2 | Dose-dependent effect | Stable | inactive | inactive | Stable | Unstable | 106 µM | inactive | 137 µM | Stable | inactive | Dose-dependent effect | inactive | inactive | inactive | Active | –
3 | Cc1c(C)c2c(c(C)c1OC(=O)CCC(=O)O)CC[C@@](C)(CCC[C@H](C)CCC[C@H](C)CCCC(C)C)O2 [(+)-ALPHA-TOCOPHERYL SUCCINATE] | Dose-dependent effect | Stable | Active | inactive | Unstable | Unstable | 42 µM | inactive | 315 µM | Unstable | inactive | Dose-dependent effect | Active | inactive | Active | Active | Activity (Bos taurus [20]): Active; Activity (Bos taurus [21]): Active; Activity (Bos taurus [22]): Active
4 | C=C(C)[C@H]1Cc2c(ccc3c2O[C@@H]2COc4cc(OC)c(OC)cc4[C@@H]2C3=O)O1 | – | – | – | – | – | – | – | – | – | – | – | – | – | – | – | – | Activity (Bos taurus [23]): Active
5 | CC(=O)Oc1c(C)c(C)c2c(c1C)CC[C@@](C)(CCC[C@H](C)CCC[C@H](C)CCCC(C)C)O2 | – | – | inactive | – | – | – | > 1000 µM | – | – | – | – | – | inactive | – | inactive | – | Drug degradation [9]: 100%; inhibition (Bos taurus [24]): Active
